Test results taken from publication PMC10552397 (Cell Communication and Signaling : CCS, 2023).

Tests used:
GRASP55 = GRASP55 (Homo sapiens, UniProt Q9H8Y8); assay: Thermal proteome profiling temperature range (TPP-TR/RTSA), GRASP55; assay type: binding; parameters: endogenous in cells; host or cells: HeLa wt cells; conditions: 100 nM, 6 h
Procedure: TPP was performed essentially as described, but with major modifications to the TMT labeling sets and statistical data analysis for TPP-TR.
Adherent cells were washed in the dish once with DPBS and harvested by Trypsin–EDTA (0.25%, Thermo Fisher Scientific, Waltham, MA, USA, #25,200,056) treatment. […]
After temperature treatment, samples were supplemented with lysis buffer (final concentrations: 0.36 U/µL benzonase, 1.5 mM MgCl2, 1 mM Na3VO4, 10 mM NaF, 2.5 mM Na4P2O7, 0.8% w/v NP-40) for 1 h on ice. […] The total protein concentration of the resulting cell extracts containing the fraction of soluble, non-denatured proteins was determined (Pierce 660 nm Protein Assay, BSA as standard). […] The two (37 °C or 50 °C) x ten (concentrations) x three (replicates) = 60 TPP-CCR samples and two (treatment and control) x ten (temperatures) x three (replicates) = 60 TPP-TR samples were analyzed by LC–MS/MS. GRASP55 was additionally quantified from the TPP-TR samples by immunoblotting as described in the respective section.
For TPP-CCR, SP3 was performed as described with slight modifications to the original protocol using on average 5 µg total protein per sample and resulting in theoretically 5 µg peptides in 22 µL 50 mM triethylammonium bicarbonate per sample. […] This volume was calculated such that the lowest two temperature samples (36.5 °C and 41.2 °C) contained 10 µg total protein on average. […]

HeLa wt cells = assay: Immunofluorescence of LC3 and LAMP1; assay type: cell-based; conditions: 2 h; prodigiosin 100 nM, BafA1 10 nM
Procedure: For immunofluorescence microscopy, HeLa cells were seeded on glass coverslips in 24-well plates. After treatment, cells were fixed in 4% paraformaldehyde for 15 min on ice, quenched with 50 mM NH4Cl for 15 min and permeabilized with 50 µg/mL digitonin (Sigma-Aldrich, St. Louis, MO, USA, #D141) for 5 min. Fixed samples were blocked with 3% BSA (Roth, Karlsruhe, Germany, #8076) for 30 min or overnight and incubated with primary antibodies diluted in 3% BSA for 2 h. Samples were then washed three times with DPBS, incubated with the appropriate secondary antibodies diluted in 3% BSA for 30 min and washed three times with DPBS. Afterwards, cells were embedded in ProLong Glass Antifade Mountant (Thermo Fisher Scientific, Waltham, MA, USA, #P36980) containing 1 µg/mL DAPI (Roth, Karlsruhe, Germany, #6335.1). Images were recorded with an Axio Observer 7 fluorescence microscope (Carl Zeiss Microscopy, Oberkochen, Germany) using a 40x/1,4 Oil DIC M27 Plan-Apochromat objective (Carl Zeiss Microscopy, Oberkochen, Germany) and an ApoTome 2 (Carl Zeiss Microscopy, Oberkochen, Germany).

## CCCCCC1=C/C(=C/c2[nH]c(-c3ccc[nH]3)cc2OC)N=C1C [Prodigiosin, prodigiosin]
GRASP55; HeLa wt, vs DMSO
  mean melting point difference of GRASP55 (TPP-TR): 2.1 °C
GRASP55; intensities at 36.5 °C
  effect on GRASP55 abundance: No effect
HeLa wt cells
  LC3-positive structures: increase
  co-localization of LC3- and LAMP1-positive structures: highly significant increase
